Values joined by “and” are separate entries in the source; they are usually repeats but may differ in a detail not shown here. Equal entries are not always repeated. Numbers after ± are expanded uncertainties.
Key:
[1] = Molar enthalpy of transition or fusion; settings: Crystal; DSC
[2] = Crystal; for Normal melting temperature: DTA

Row | SMILES | Molar enthalpy of transition or fusion [1] | Normal melting temperature [2] | vapor or sublimation pressure ([2]; 333.2 K) | vapor or sublimation pressure ([2]; 338.2 K) | vapor or sublimation pressure ([2]; 348.2 K) | vapor or sublimation pressure ([2]; 358.2 K) | other results
1 | FC(F)(F)C(F)(F)C(F)(F)C(F)(F)C(F)(F)C(F)(F)C(F)(F)C(F)(F)C(F)(F)C(F)(F)C(F)(F)C(F)(F)F [hexacosafluorododecane] | 5.78 ± 0.311 kcal/mol | 73.5 ± 0.7 °C | 0.4571 ± 0.046 kPa | 0.7269 ± 0.073 kPa | 1.63 ± 0.16 kPa |  | vapor or sublimation pressure ([2]; 313.3 K): 0.0672 ± 0.0067 kPa; vapor or sublimation pressure ([2]; 318.2 K): 0.1074 ± 0.011 kPa; vapor or sublimation pressure ([2]; 323.2 K): 0.1781 ± 0.018 kPa; vapor or sublimation pressure ([2]; 328.2 K): 0.2832 ± 0.028 kPa; vapor or sublimation pressure ([2]; 343.2 K): 1.039 ± 0.1 kPa
2 | FC(F)(F)C(F)(F)C(F)(F)C(F)(F)C(F)(F)C(F)(F)C(F)(F)C(F)(F)C(F)(F)C(F)(F)C(F)(F)C(F)(F)C(F)(F)F [perfluorotridecane] | 6.67 ± 0.239 kcal/mol | 88.6 ± 0.7 °C |  |  |  | 1.147 ± 0.11 kPa | vapor or sublimation pressure ([2]; 313.2 K): 0.0143 ± 0.0014 kPa; vapor or sublimation pressure ([2]; 318.4 K): 0.0253 ± 0.0025 kPa; vapor or sublimation pressure ([2]; 323.4 K): 0.0443 ± 0.0044 kPa; vapor or sublimation pressure ([2]; 329.3 K): 0.0796 ± 0.008 kPa; vapor or sublimation pressure ([2]; 333.5 K): 0.1199 ± 0.012 kPa; vapor or sublimation pressure ([2]; 339.3 K): 0.2077 ± 0.021 kPa; vapor or sublimation pressure ([2]; 343.3 K): 0.297 ± 0.03 kPa; vapor or sublimation pressure ([2]; 349.2 K): 0.5217 ± 0.052 kPa; vapor or sublimation pressure ([2]; 354.1 K): 0.8357 ± 0.084 kPa
3 | Fc1c(F)c(F)c(-c2c(F)c(F)c(F)c(F)c2F)c(F)c1F [perfluorobiphenyl] | 4.9 ± 0.311 kcal/mol | 66.5 ± 0.7 °C |  |  |  |  | 

Now from value to molecule, other results behind:

Row | Molar enthalpy of transition or fusion [1] | Normal melting temperature [2] | vapor or sublimation pressure ([2]; 333.2 K) | vapor or sublimation pressure ([2]; 338.2 K) | vapor or sublimation pressure ([2]; 348.2 K) | vapor or sublimation pressure ([2]; 358.2 K) | SMILES | other results
4 | 15.1 ± 0.406 kcal/mol | 188.0 ± 0.7 °C |  |  |  |  | FC(F)(F)C(F)(F)C(F)(F)C(F)(F)C(F)(F)C(F)(F)C(F)(F)C(F)(F)C(F)(F)C(F)(F)C(F)(F)C(F)(F)C(F)(F)C(F)(F)C(F)(F)C(F)(F)C(F)(F)C(F)(F)C(F)(F)C(F)(F)C(F)(F)C(F)(F)C(F)(F)C(F)(F)F [perfluorotetracosane] | 
5 | 12 ± 0.263 kcal/mol | 163.1 ± 0.7 °C |  |  |  |  | FC(F)(F)C(F)(F)C(F)(F)C(F)(F)C(F)(F)C(F)(F)C(F)(F)C(F)(F)C(F)(F)C(F)(F)C(F)(F)C(F)(F)C(F)(F)C(F)(F)C(F)(F)C(F)(F)C(F)(F)C(F)(F)C(F)(F)C(F)(F)F [dotetracontafluoroeicosane] | 
6 | 8.39 ± 0.191 kcal/mol | 115.0 ± 0.7 °C | 0.00776 ± 0.00078 kPa | 0.0139 ± 0.0014 kPa | 0.0408 ± 0.0041 kPa | 0.1119 ± 0.011 kPa | FC(F)(F)C(F)(F)C(F)(F)C(F)(F)C(F)(F)C(F)(F)C(F)(F)C(F)(F)C(F)(F)C(F)(F)C(F)(F)C(F)(F)C(F)(F)C(F)(F)C(F)(F)F [perfluoropentadecane] | vapor or sublimation pressure ([2]; 312.1 K): 0.0006 ± 6e-05 kPa; vapor or sublimation pressure ([2]; 323.2 K): 0.0025 ± 0.00025 kPa; vapor or sublimation pressure ([2]; 343.3 K): 0.0238 ± 0.0024 kPa; vapor or sublimation pressure ([2]; 353.1 K): 0.0662 ± 0.0066 kPa; vapor or sublimation pressure ([2]; 363.2 K): 0.1796 ± 0.018 kPa; vapor or sublimation pressure ([2]; 368.2 K): 0.2908 ± 0.029 kPa
7 | 7.53 ± 0.215 kcal/mol | 102.5 °C | 0.0315 ± 0.0032 kPa | 0.053 ± 0.0053 kPa | 0.161 ± 0.016 kPa | 0.4128 ± 0.041 kPa and 0.4025 ± 0.04 kPa | FC(F)(F)C(F)(F)C(F)(F)C(F)(F)C(F)(F)C(F)(F)C(F)(F)C(F)(F)C(F)(F)C(F)(F)C(F)(F)C(F)(F)C(F)(F)C(F)(F)F [triacontafluorotetradecane] | vapor or sublimation pressure ([2]; 313.2 K): 0.00349 ± 0.00035 kPa; vapor or sublimation pressure ([2]; 318.2 K): 0.00664 ± 0.00066 kPa; vapor or sublimation pressure ([2]; 328.2 K): 0.0191 ± 0.0019 kPa; vapor or sublimation pressure ([2]; 343.2 K): 0.0971 ± 0.0097 kPa; vapor or sublimation pressure ([2]; 353.1 K): 0.2493 ± 0.025 kPa
8 | 9.25 ± 0.191 kcal/mol | 126.6 ± 0.7 °C |  |  |  |  | FC(F)(F)C(F)(F)C(F)(F)C(F)(F)C(F)(F)C(F)(F)C(F)(F)C(F)(F)C(F)(F)C(F)(F)C(F)(F)C(F)(F)C(F)(F)C(F)(F)C(F)(F)C(F)(F)F [tetratriacontafluorohexadecane] | 
